Assay results from PMC8231113, “Protein Secondary Structure Affects Glycan Clustering in Native Mass Spectrometry” (Life, 2021).

How the values were obtained:
[1] = target: T1, human apo-transferrin (apo-TFF) (Homo sapiens, UniProt P02787); test: Native MS glycan clustering to reference protein apo-TFF; assay type: binding; details: on apo-TFF
T1 construct: purchased Sigma-Aldrich (Merck, Germany)
Procedure: (§1) Prior to MS analysis, purified P dimers were buffer exchanged to 150 mM ammonium acetate (Sigma-Aldrich, reagent grade ≥98%) at pH 7 via centrifugal filter units at 12,000× g at 4 °C (Vivaspin 500, MWCO 10000, Sartorius). Glycans for native MS analysis were mixed with 1 µM (per monomer) purified GII.4 Saga P dimer and 3 µM of the reference proteins at indicated concentrations. Native mass spectra were measured at room temperature in positive ion mode on a high mass modified LCT Premier mass spectrometer (Waters/Micromass, UK and MS Vision, the Netherlands) with a nano-ESI source. In house-made gold-coated electrospray capillaries were used for direct-sample infusion without any accessory chromatographic separation. The voltages and pressures were optimized for non-covalent protein complexes. The gas pressure used in the source hexapole was set between 6.5 and 6.8 × 10^−2 mbar argon optimized for minimal complex dissociation and the backing pressure of the source roughing pump was set between 7.0 and 8.5 mbar. Spectra were recorded with applied voltages for the capillary and cone of 1.20 kV and 240 V, respectively. Note that charge state distributions for P dimers were sometimes slightly shifted as was the degree of glycan clustering per charge state. These changes were highly variable and not quantifiable.
(§2) For calibration of the raw data, a 25 mg/mL cesium iodide spectrum from the same day was used. MassLynx V4.1 (Waters, Manchester, UK) was used to assign peak series to protein species and to determine the mass after minimal smoothing. Furthermore, OriginPro 2016 SR2 (OriginLab, Northampton, MA, USA) was used for spectral deconvolution and curve fitting. Correction for nonspecific protein-ligand clustering was performed as described. Corrected peak areas were averaged and normalized to the free-protein signal. Data were based on at least three independent measurements. Python code Panda and Numpy package were used to calculate the specific binding of P dimers according to the glycan clustering ratio obtained from the selected reference protein candidates. Seaborn and matplotlib.pyplot package were imported into a python script to plot the results. The module of sklearn.linear model was applied for linear regression. The matplotlib and heatmap package were used to plot the heatmap.
(§3) Theoretically, the KD is calculated by measuring the concentration of the three components (Pfree, Lfree, PL) in solution. Usually, these values are only indirectly accessible because they require ligand titration up to binding saturation. However, native MS allows for the directly measurement of Pfree and PL, from which Lfree can be calculated using the input concentrations. In the present work, the non-covalent interaction was measured in the gas phase assuming identical ESI and detection efficiency for free and glycan-associated proteins, both for the analyte and the reference protein. […] For P dimers, the equations reflect glycan binding to the individual monomers assuming that binding sites on each monomer are equal and independent.
(§4) Using R described in Equation (3), the KD calculation can be re-written into Equation (4) with the known initial concentration of glycan ligand [L0] and protein [P0], adapted from Sun et al.:(3) R=PLequil∕Pequil=∑nA(PL^n+)∕n∕∑nA(P^n+)∕n (4) KD =L0−RP0/1+R/R
(§5) For the carbohydrate-binding experiments, it was essential to keep the initial protein concentrations and pH value constant during the analysis of the protein-carbohydrate solutions. While acidification occurs in any ESI droplet, the remaining solution in the capillary changes pH over time. Therefore, accumulated spectra were obtained within 10 min after the voltages were applied to minimize the influence of pH changes during the measurements. […]

[2] = target: T2, carbonic anhydrase isozyme II from bovine erythrocytes (CA) (Bos taurus, UniProt P00921); test: Native MS glycan clustering to reference protein CA; assay type: binding; details: on CA
T2 construct: carbonic anhydrase isozyme II from bovine erythrocytes (CA, CAS number 9001-03-0); purchased Sigma-Aldrich (Merck, Germany); host or cells: bovine erythrocytes
Procedure: as §1, §2, §3, §4, §5

[3] = target: T3, myoglobin from equine heart (Myo) (Equus caballus, UniProt P68082); test: Native MS glycan clustering to reference protein Myo; assay type: binding; details: on Myo
T3 construct: myoglobin from equine heart (Myo, CAS number 100684-32-0); purchased Sigma-Aldrich (Merck, Germany); host or cells: equine heart
Procedure: as §1, §2, §3, §4, §5

GII.4 Saga P dimer = GII.4 Saga P dimer (Norovirus GII.4 (human norovirus), UniProt B5BTR7); test: Native MS, specific glycan binding to P dimer after reference protein correction; parameters: species or system human norovirus (hNoV)
Procedure: as §1, §2
Data from native ESI MS measurements were translated into dissociation constants (KD values). The detailed calculations were based on the equations listed below. A protein (P) and a glycan ligand (L) form a complex through non-covalent interactions leading to a reversible association described by (Equation (1)):(1) P+L⇌PL when equilibrium is reached, the KD can be calculated directly from the concentrations via the law of mass action (Equation (2)):(2) KD=[Pfree][Lfree]/[PL]
as §3
Using R described in Equation (3), the KD calculation can be re-written into Equation (4) with the known initial concentration of glycan ligand [L0] and protein [P0], adapted from Sun et al.:(3) R=PLequil∕Pequil=∑nA(PL^n+)∕n∕∑nA(P^n+)∕n (4) KD =L0−RP0/1+R/R […]

T1 sequence (P02787 20-698): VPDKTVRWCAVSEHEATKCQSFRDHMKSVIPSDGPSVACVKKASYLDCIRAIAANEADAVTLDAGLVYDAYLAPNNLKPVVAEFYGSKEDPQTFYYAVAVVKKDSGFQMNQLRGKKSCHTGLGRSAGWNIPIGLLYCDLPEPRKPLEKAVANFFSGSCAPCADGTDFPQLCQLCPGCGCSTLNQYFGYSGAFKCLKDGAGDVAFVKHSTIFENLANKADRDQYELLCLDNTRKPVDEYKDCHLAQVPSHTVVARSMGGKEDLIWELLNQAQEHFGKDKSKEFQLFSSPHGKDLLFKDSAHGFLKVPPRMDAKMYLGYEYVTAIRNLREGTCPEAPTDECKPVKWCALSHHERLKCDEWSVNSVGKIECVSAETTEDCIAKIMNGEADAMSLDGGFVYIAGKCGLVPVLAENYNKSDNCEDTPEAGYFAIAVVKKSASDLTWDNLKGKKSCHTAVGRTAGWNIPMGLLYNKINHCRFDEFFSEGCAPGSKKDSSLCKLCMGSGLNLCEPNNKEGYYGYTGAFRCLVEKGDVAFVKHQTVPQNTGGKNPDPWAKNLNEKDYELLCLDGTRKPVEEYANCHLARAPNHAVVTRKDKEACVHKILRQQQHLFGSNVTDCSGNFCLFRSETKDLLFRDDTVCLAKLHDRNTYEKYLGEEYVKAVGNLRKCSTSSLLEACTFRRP
T2 sequence (P00921 whole entry): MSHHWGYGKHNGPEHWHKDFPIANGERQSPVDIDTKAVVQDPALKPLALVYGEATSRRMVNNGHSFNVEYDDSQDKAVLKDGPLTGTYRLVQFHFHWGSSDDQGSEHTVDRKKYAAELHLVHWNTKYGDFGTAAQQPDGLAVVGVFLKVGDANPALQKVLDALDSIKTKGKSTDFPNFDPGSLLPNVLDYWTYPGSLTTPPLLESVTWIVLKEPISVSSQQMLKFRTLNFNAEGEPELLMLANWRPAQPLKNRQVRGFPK
T3 sequence (P68082 whole entry): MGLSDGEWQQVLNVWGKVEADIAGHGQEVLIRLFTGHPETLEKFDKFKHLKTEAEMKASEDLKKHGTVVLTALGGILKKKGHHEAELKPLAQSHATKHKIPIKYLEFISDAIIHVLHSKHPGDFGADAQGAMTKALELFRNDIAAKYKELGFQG

## CC(=O)N[C@H]1[C@@H](O[C@H]2[C@@H](O)[C@@H](CO)O[C@@H](O[C@H]3[C@H](O)[C@@H](CO)OC(O)[C@@H]3NC(C)=O)[C@@H]2O[C@@H]2O[C@@H](C)[C@@H](O)[C@@H](O)[C@@H]2O)O[C@H](CO)[C@H](O)[C@@H]1O (stereo partly shown) [HBGA A, GalNAcα1-3(Fucα-2)Galβ1-3GlcNAc]
[1]; 100 µM glycan
  Glycan-Clustering Ratio R: 0.39±0.02
[1]; 200 µM glycan
  Glycan-Clustering Ratio R: 0.57±0.05
[1]; 300 µM glycan
  Glycan-Clustering Ratio R: 0.65±0.02
[1]; 400 µM glycan
  Glycan-Clustering Ratio R: 0.71±0.03
[1]; 500 µM glycan
  Glycan-Clustering Ratio R: 0.79 ± 0.03
[2]; 100 µM glycan
  Glycan-Clustering Ratio R: 0.20±0.05
[2]; 200 µM glycan
  Glycan-Clustering Ratio R: 0.37±0.01
[2]; 300 µM glycan
  Glycan-Clustering Ratio R: 0.42±0.02
[2]; 400 µM glycan
  Glycan-Clustering Ratio R: 0.57±0.02
[2]; 500 µM glycan
  Glycan-Clustering Ratio R: 0.74 ± 0.07
[3]; 100 µM glycan
  Glycan-Clustering Ratio R: 0.13±0.03
[3]; 200 µM glycan
  Glycan-Clustering Ratio R: 0.16±0.03
[3]; 300 µM glycan
  Glycan-Clustering Ratio R: 0.22±0.03
[3]; 400 µM glycan
  Glycan-Clustering Ratio R: 0.29±0.04
[3]; 500 µM glycan
  Glycan-Clustering Ratio R: 0.34 ± 0.03
GII.4 Saga P dimer; ref. protein ADH, glycan 100 µM
  Bound number of carbohydrates on Saga P dimer: 0
GII.4 Saga P dimer; ref. protein ADH, glycan 200 µM
  Bound number of carbohydrates on Saga P dimer: 0
GII.4 Saga P dimer; ref. protein ADH, glycan 300 µM
  Bound number of carbohydrates on Saga P dimer: 0
GII.4 Saga P dimer; ref. protein ADH, glycan 400 µM
  Bound number of carbohydrates on Saga P dimer: 0
GII.4 Saga P dimer; ref. protein ADH, glycan 500 µM
  Bound number of carbohydrates on Saga P dimer: 0
GII.4 Saga P dimer; ref. protein CA, glycan 100 µM
  Bound number of carbohydrates on Saga P dimer: 1
GII.4 Saga P dimer; ref. protein CA, glycan 200 µM
  Bound number of carbohydrates on Saga P dimer: 1
GII.4 Saga P dimer; ref. protein CA, glycan 300 µM
  Bound number of carbohydrates on Saga P dimer: 1
GII.4 Saga P dimer; ref. protein CA, glycan 400 µM
  Bound number of carbohydrates on Saga P dimer: 1
GII.4 Saga P dimer; ref. protein CA, glycan 500 µM
  Bound number of carbohydrates on Saga P dimer: 1
GII.4 Saga P dimer; ref. protein Cyto c, glycan 100 µM
  Bound number of carbohydrates on Saga P dimer: 2
GII.4 Saga P dimer; ref. protein Cyto c, glycan 200 µM
  Bound number of carbohydrates on Saga P dimer: 3
GII.4 Saga P dimer; ref. protein Cyto c, glycan 300 µM
  Bound number of carbohydrates on Saga P dimer: 3
GII.4 Saga P dimer; ref. protein Cyto c, glycan 400 µM
  Bound number of carbohydrates on Saga P dimer: 4
GII.4 Saga P dimer; ref. protein Cyto c, glycan 500 µM
  Bound number of carbohydrates on Saga P dimer: 4
GII.4 Saga P dimer; ref. protein GFP, glycan 100 µM
  Bound number of carbohydrates on Saga P dimer: 1
GII.4 Saga P dimer; ref. protein GFP, glycan 200 µM
  Bound number of carbohydrates on Saga P dimer: 1
GII.4 Saga P dimer; ref. protein GFP, glycan 300 µM
  Bound number of carbohydrates on Saga P dimer: 1
GII.4 Saga P dimer; ref. protein GFP, glycan 400 µM
  Bound number of carbohydrates on Saga P dimer: 1
GII.4 Saga P dimer; ref. protein GFP, glycan 500 µM
  Bound number of carbohydrates on Saga P dimer: 1
GII.4 Saga P dimer; ref. protein LDH, glycan 100 µM
  Bound number of carbohydrates on Saga P dimer: 0
GII.4 Saga P dimer; ref. protein LDH, glycan 200 µM
  Bound number of carbohydrates on Saga P dimer: 0
GII.4 Saga P dimer; ref. protein LDH, glycan 300 µM
  Bound number of carbohydrates on Saga P dimer: 0
GII.4 Saga P dimer; ref. protein LDH, glycan 400 µM
  Bound number of carbohydrates on Saga P dimer: 0
GII.4 Saga P dimer; ref. protein LDH, glycan 500 µM
  Bound number of carbohydrates on Saga P dimer: 1
GII.4 Saga P dimer; ref. protein Myo, glycan 100 µM
  Bound number of carbohydrates on Saga P dimer: 2
GII.4 Saga P dimer; ref. protein Myo, glycan 200 µM
  Bound number of carbohydrates on Saga P dimer: 3
GII.4 Saga P dimer; ref. protein Myo, glycan 300 µM
  Bound number of carbohydrates on Saga P dimer: 3
GII.4 Saga P dimer; ref. protein Myo, glycan 400 µM
  Bound number of carbohydrates on Saga P dimer: 3
GII.4 Saga P dimer; ref. protein Myo, glycan 500 µM
  Bound number of carbohydrates on Saga P dimer: 4
GII.4 Saga P dimer; ref. protein Ubq, glycan 100 µM
  Bound number of carbohydrates on Saga P dimer: 2
GII.4 Saga P dimer; ref. protein Ubq, glycan 200 µM
  Bound number of carbohydrates on Saga P dimer: 3
GII.4 Saga P dimer; ref. protein Ubq, glycan 300 µM
  Bound number of carbohydrates on Saga P dimer: 4
GII.4 Saga P dimer; ref. protein Ubq, glycan 400 µM
  Bound number of carbohydrates on Saga P dimer: 4
GII.4 Saga P dimer; ref. protein Ubq, glycan 500 µM
  Bound number of carbohydrates on Saga P dimer: 4
GII.4 Saga P dimer; ref. protein apo-TFF, glycan 100 µM
  Bound number of carbohydrates on Saga P dimer: 0
GII.4 Saga P dimer; ref. protein apo-TFF, glycan 200 µM
  Bound number of carbohydrates on Saga P dimer: 0
GII.4 Saga P dimer; ref. protein apo-TFF, glycan 300 µM
  Bound number of carbohydrates on Saga P dimer: 1
GII.4 Saga P dimer; ref. protein apo-TFF, glycan 400 µM
  Bound number of carbohydrates on Saga P dimer: 1
GII.4 Saga P dimer; ref. protein apo-TFF, glycan 500 µM
  Bound number of carbohydrates on Saga P dimer: 1
